Experimental data as given in patent US20170016884A1, “A NOVEL, HIGH-THROUGHPUT, NANOTOPOGRAPHIC PLATFORM FOR SCREENING CELL MIGRATORY BEHAVIOR” (THE JOHNS HOPKINS UNIVERSITY, priority 2014, published 2017).

Experiments:
GB = details: cited from earlier work
PDGFRα = PDGFRα (Homo sapiens, UniProt P16234); details: cited from earlier work
primary human GB cells [1] = assay: cell migration on multi-well nanopatterned platform (time-lapse microscopy); format: cell-based; details: for fraction of cells maintaining slower speeds (≦15 μm/hr): PDGF-exposed
Protocol: (§1) Cells were cultured in the multi-well, nanopatterned device for approximately 48 hours in the course of each experiment. Prior to plating cells, nanoridged substrata were coated with poly-D-lysine (10 μg ml-1) for 15 minutes and mouse laminin (from 10 to 140 μg ml-1) for 1 hour. These topographically patterned cell substrata, caused cells to align with and move along the direction of the nanoridges. Both prior to, and during experiments cells were maintained at 37° C. and 5% CO2 in Dulbecco's Modified Eagle Medium: Nutrient Mixture F-12 containing 2 mM L-glutamine, with added 50 U mL-1 penicillin, […] streptomycin. Where indicated, media contained 10% fetal bovine serum (Invitrogen) or alternatively, Platelet-Derive Growth Factor-AA (PDGF-AA) (LC Laboratories) at specified concentrations.
Cell migration was observed using time-lapse microscopy (Movies S1-S3). To enable long-term observation, the multi-well, nanopatterned device was mounted onto the stage of a motorized inverted microscope (Olympus IX81) equipped with a Photometrics® Cascade® 512B II CCD camera and temperature and gas controlling environmental chamber. Phase contrast cell images were automatically recorded under 10× objective (NA=0.30) using the SlideBook™ 4.1 Software (Intelligent Imaging Innovations, Denver, Colo.) for 10-15 hours at 10 or 20 minute intervals.
Because cell-cell contact is known to affect the extent of cell spreading and migration, cells were plated at low density (˜4×10^4 cells mL -1) to allow isolated movements. A custom-made MATLAB® script was used allow manual tracking and measurement of cells frame by frame. Analysis was stopped in the event of cell death, division, collision with non-cellular debris, or movement out of the field of view. Area and spindle shape factor of individual cells was measured in each frame, and averaged over the entire duration of the experiment. The spindle shape factor was defined as the ratio of the maximum cell length (long axis) to the maximum cell width in the direction perpendicular to long axis, regardless of the orientation with respect to nanoridge pattern. Averages of cell populations were calculated from at least 60 cells.
Cells movements were tracked by centroid position or by the approximate center of the cell body. Individual cell trajectories were used to calculate the mean squared displacement (MSD) at each interval. Instantaneous speeds of individual cells were calculated from the MSD and the duration of the image acquisition time interval. Average speeds of individual cells were calculated from the total distanced moved throughout the entire cell trajectory and the total time the cell was tracked. Persistence was obtained as previously described, by calculating the ratio of the shortest distance between starting point and end point, divided by the total distanced moved. Alignment to the nanoridge pattern was calculated by dividing the distance moved parallel to the ridges, by the distance moved perpendicular to the ridges. Averages of cell populations were calculated from at least 60 cells.

Akt = Akt phosphorylation via immunoblotting; format: cell-based, human; details: FIG. 10B
Protocol: Total cellular protein was extracted using NE-PER Nuclear and Cytoplasmic Extraction Reagents kit according to the manufacturer's instructions (Thermo Scientific) containing protease (Roche) and phosphatase inhibitor (Thermo). Protein concentration was determined using the Bradford protein quantification method (Biorad Protein Assay, Biorad). SDS-PAGE was performed with 25 μg total cellular protein per lane using 4-12% gradient Tris glycine gels. The primary antibodies used were as follows: anti PDGFR-alpha (1:200; Santa Cruz); phospho-PDGFR alpha (1:1000; Cell Signaling); Akt (1:1000; Cell Signaling);
phospho-Akt (1:1000; Cell Signaling).

human GB cells = assay: mouse intracranial tumor xenograft of human GB cells with PDGF exposure; format: in vivo
Protocol: All animal protocols were approved by the Johns Hopkins School of Medicine Animal Care and Use Committee. For intracranial xenografts, SCID immnodeficient mice received 100,000 viable cells in 1 μl of DMEM/F12 serum media without growth factors by stereotactic injection into the right striatum. Cells were cultured in DMEM/F12 serum media with EGF/FGF and PDGF-AA ligand for three weeks before injections were performed. Cell viability was determined by trypan blue dye exclusion. Mice were perfused with 4% paraformaldehyde at the indicated times and the brains were removed for histological analysis.

primary human GB cells [2] = assay: cell migration on flat (smooth) substrata; format: cell-based
Protocol: as §1, with “Prior to plating cells, nanoridged substrata were coated with poly-D-lysine (10 μg ml-1) for 15 minutes and mouse laminin (from 10 to 140 μg ml-1) for 1 hour.” left out
Cell migration was observed using time-lapse microscopy (Movies S1-S3). […] Phase contrast cell images were automatically recorded under 10× objective (NA=0.30) using the SlideBook™ 4.1 Software (Intelligent Imaging Innovations, Denver, Colo.) for 10-15 hours at 10 or 20 minute intervals.
Because cell-cell contact is known to affect the extent of cell spreading and migration, cells were plated at low density (˜4×10^4 cells mL -1) to allow isolated movements. […] Area and spindle shape factor of individual cells was measured in each frame, and averaged over the entire duration of the experiment. […] Averages of cell populations were calculated from at least 60 cells. […]

Sequence of PDGFRα (P16234 24-1089): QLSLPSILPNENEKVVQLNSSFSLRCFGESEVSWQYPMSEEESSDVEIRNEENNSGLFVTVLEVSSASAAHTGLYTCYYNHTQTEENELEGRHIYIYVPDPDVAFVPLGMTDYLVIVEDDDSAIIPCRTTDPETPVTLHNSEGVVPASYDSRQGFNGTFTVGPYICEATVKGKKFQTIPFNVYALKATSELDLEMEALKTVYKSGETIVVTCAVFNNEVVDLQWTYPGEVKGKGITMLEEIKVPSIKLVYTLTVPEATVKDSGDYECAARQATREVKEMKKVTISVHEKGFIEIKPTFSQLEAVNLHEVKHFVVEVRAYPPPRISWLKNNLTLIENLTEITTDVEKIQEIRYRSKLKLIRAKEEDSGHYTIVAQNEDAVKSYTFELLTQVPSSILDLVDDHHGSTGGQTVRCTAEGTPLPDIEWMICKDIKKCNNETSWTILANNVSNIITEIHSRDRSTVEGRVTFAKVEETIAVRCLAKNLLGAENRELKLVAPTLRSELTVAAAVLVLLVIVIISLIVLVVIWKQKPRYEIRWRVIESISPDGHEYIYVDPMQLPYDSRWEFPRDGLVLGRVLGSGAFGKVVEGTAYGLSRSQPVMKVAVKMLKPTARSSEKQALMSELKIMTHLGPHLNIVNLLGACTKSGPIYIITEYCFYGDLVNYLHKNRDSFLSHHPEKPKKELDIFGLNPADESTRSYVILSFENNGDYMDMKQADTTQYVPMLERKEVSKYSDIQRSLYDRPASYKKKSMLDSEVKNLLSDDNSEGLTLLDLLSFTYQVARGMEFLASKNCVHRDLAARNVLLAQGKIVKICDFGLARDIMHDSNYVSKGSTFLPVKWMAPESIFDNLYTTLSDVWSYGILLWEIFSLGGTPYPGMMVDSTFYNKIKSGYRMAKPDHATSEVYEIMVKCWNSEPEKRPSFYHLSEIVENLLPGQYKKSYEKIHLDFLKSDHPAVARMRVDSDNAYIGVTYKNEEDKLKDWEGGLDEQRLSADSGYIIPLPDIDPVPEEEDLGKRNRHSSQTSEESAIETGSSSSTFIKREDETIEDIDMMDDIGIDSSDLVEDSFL

Cc1ccc(NC(=O)c2ccc(CN3CCN(C)CC3)cc2)cc1Nc1nccc(-c2cccnc2)n1 [Imatinib]
GB growth (GB): inhibit GB growth in vitro and in vivo
interaction with PDGFRα (PDGFRα): known to interact with PDGFRα
effect on PDGF-stimulated migration (speed and alignment) (primary human GB cells [1]; 'responding' sample GB 276, PDGF-stimulated): attenuation of enhancements in speed and alignment

PDGF
phosphorylation (activation) of downstream effector Akt (Akt): PDGFdependent
survival of mice (human GB cells; GB 276 neurospheres cultured with PDGF three weeks before intracranial injection, n=4): significantly reduced survival
tumor size, invasiveness and shape (human GB cells; continuous PDGF exposure of tumor xenografts via infusion pump, n=2): larger, more invasion tumors with more eccentric shapes
increase in migration speed upon PDGF stimulation vs unstimulated cells (primary human GB cells [1]; 'responding' GB samples, PDGF 40-50 ng/mL): 15-100%
fraction of cells maintaining slower speeds (≦15 μm/hr) (primary human GB cells [1]; GB 318 cells): roughly 70%
fraction of cells maintaining slower speeds (≦15 μm/hr) (primary human GB cells [1]; GB 630 cells): ~60%
sub-population of aggressive cells accounting for the increased average migration speed (primary human GB cells [1]; in the presence of PDGF): approximately 20%
maximal motility relative to control (primary human GB cells [1]; nanopatterned system, intermediate PDGF concentrations, serum-free medium): up to 2 fold
dose dependence of response in migration speed and persistence (primary human GB cells [1]; nanopatterned system, seven PDGF concentrations): clear graded dose dependence
migratory response to PDGF exposure (primary human GB cells [2]): much more limited responses

laminin: surface-immobilized ECM protein used to coat substrata
response of speed, alignment and persistence to laminin coating concentration (primary human GB cells [1]; GB 318 cells, nanopatterned substrata, optimum at intermediate laminin values): biphasic response
differences in migration at varying laminin densities (primary human GB cells [2]; GB 318 cells): did not observe statistically significant differences
